Structures can show the parent of a compound that is named as a salt.
What was measured:
GluN1/2A receptors [1] = molecular target: T1, GluN1/2A receptors (Rattus norvegicus, UniProt P35439+Q00959); assay: MCI protocol, whole-cell recording from GluN1/2A NMDAR-expressing tsA201 cells; format: cell-based
T1 construct: expressed in transfected cells; host or cells: tsA201 cells (HEK 293 variant)
Description: (§1) Wildtype or mutant GluN1/2A receptors were used for all tsA201 cell experiments. 12–24 h after plating, tsA201 cells were transiently co-transfected using FuGENE6 Transfection Reagent (Promega) with mammalian expression plasmids that contained cDNAs encoding enhanced green fluorescent protein (EGFP in pRK7) for identification of transfected cells, the rat GluN1-1a subunit (referred to as GluN1; GenBank X63255 in pcDNA3.1), and the rat GluN2A subunit (GenBank M91561 in pcDNA1). For some experiments cells were transfected with GluN1 and EGFP:pIRES:GluN2A (a generous gift from Dr. Kasper Hansen (Hansen, unpublished)), which was constructed by inserting EGFP in pIRES (Clontech) under transcriptional control of the CMV promoter, and rat GluN2A cDNA (GenBank D13211) after the IRES sequence. Voltage clamp recordings were performed on tsA201 cells 12–48 h after transfection.
(§2) Pipettes were pulled from borosilicate capillary tubing (Sutter Instruments) on a Flaming Brown P-97 microelectrode puller (Sutter Instruments) and polished with a heated filament to a resistance of 2–5 MΩ. Whole-cell recordings were made from cells expressing eGFP identified by epifluorescence illumination on an inverted Zeiss Axiovert microscope. Cells were held at a Vm of −65 mV (corrected for a liquid junction potential of −6 mV) unless otherwise indicated. Whole-cell currents were recorded using an Axopatch 200B patch-clamp amplifier (Molecular Devices). Series resistance was compensated 80–90% using the prediction and correction circuitry. […] NMDAR responses were activated by fast perfusion of 1 mM glutamate (tsA201 cells) or 100 μM NMDA (cultured neurons).
Solutions were delivered to cells using a ten-barrel fast perfusion system. […] If channel blocker remained in the extracellular solution after the 1-s wash, measurements of MCI could have been contaminated by inhibition due to traditional open channel block.
We averaged minima of IControl2/IControl1 and IControl1/IControl2 to control for any possible rundown or runup of NMDAR response. For pH jump experiments, to control also for possible delayed effects of the pH jump on NMDAR responses, the minimum IMCI/IControl value was measured using an additional set of experiments.

cultured neurons = test system: cultured neurons; design: method as in PMID 8570022; settings: cultured neurons held at −70 mV; read-out: IC50 (previous value); cited from earlier work
GluN1/2A receptors [2] = molecular target: T1, GluN1/2A receptors; assay: Traditional channel block (coapplication of drug and agonists), tsA201 cells; format: cell-based
Description: as §1, §2

[3] = test system: native NMDARs in cultured neurons; assay: MCI protocol, neurons in primary culture; format: cell-based, rat; settings: 1 μM MK-801, pH 7.2, cultured neurons, 100 μM NMDA
NMDARs = settings: cited from earlier work
[4] = molecular target: T2, GluN1/2A(M630A) receptors (Rattus norvegicus, UniProt P35439+Q00959, M630A); assay: Traditional [memantine]-inhibition curve, GluN1/2A(M630A)
T2 sequence (Q00959 23-1464 M630A, other chains not shown): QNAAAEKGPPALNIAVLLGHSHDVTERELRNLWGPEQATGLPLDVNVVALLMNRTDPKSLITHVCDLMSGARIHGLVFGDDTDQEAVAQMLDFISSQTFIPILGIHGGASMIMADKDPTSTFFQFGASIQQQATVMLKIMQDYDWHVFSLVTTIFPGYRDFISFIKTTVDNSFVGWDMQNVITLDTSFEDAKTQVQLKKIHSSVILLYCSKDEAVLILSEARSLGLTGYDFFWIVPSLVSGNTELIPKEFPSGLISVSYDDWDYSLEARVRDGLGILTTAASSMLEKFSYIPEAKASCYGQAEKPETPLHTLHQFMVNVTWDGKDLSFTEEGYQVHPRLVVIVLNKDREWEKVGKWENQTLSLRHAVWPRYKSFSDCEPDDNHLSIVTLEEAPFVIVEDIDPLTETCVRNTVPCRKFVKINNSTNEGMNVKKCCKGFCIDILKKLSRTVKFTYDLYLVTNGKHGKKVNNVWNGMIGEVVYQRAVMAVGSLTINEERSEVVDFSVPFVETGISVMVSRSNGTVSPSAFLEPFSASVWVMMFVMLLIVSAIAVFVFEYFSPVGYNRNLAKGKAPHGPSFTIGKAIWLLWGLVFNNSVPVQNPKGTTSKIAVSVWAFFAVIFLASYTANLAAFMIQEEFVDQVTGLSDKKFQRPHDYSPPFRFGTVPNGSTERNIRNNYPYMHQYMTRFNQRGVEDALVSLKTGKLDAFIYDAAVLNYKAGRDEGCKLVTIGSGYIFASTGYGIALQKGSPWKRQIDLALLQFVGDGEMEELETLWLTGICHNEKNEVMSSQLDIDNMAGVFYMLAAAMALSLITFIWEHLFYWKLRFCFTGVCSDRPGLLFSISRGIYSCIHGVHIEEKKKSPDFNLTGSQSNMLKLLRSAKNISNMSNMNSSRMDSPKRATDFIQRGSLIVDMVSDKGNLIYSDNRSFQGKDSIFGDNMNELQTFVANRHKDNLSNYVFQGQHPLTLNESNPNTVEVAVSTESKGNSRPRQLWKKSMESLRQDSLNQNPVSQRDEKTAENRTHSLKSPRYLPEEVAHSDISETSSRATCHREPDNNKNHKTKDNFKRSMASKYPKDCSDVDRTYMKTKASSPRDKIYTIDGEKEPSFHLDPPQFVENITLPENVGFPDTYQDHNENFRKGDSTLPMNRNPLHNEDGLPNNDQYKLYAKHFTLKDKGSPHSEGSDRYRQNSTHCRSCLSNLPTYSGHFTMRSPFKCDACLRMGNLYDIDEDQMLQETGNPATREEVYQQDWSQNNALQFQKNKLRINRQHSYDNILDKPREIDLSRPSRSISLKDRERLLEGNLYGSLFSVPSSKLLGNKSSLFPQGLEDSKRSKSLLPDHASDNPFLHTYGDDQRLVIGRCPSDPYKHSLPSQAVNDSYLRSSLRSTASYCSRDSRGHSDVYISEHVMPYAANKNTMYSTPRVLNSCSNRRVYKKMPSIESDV

[5] = molecular target: T2, GluN1/2A(M630A) receptors; assay: MCI protocol, GluN1/2A(M630A)
[6] = pKa, charged/uncharged fraction in aqueous solution; format: physicochemical
From the text: [36]). […] We tested this prediction by measuring the dependence of MCI on extracellular pH. A similar approach was used to study membrane partitioning of local anesthetics during VGSC inhibition[23],[24],[27].

[7] = design: method as in PMID 7086822; settings: measured pKa; cited from earlier work
[8] = molecular target: T3, GluN1/2A(M630W) receptors (Rattus norvegicus, UniProt P35439+Q00959, M630W); assay: Traditional [memantine]-inhibition curve, GluN1/2A(M630W)
T3 sequence (Q00959 23-1464 M630W, other chains not shown): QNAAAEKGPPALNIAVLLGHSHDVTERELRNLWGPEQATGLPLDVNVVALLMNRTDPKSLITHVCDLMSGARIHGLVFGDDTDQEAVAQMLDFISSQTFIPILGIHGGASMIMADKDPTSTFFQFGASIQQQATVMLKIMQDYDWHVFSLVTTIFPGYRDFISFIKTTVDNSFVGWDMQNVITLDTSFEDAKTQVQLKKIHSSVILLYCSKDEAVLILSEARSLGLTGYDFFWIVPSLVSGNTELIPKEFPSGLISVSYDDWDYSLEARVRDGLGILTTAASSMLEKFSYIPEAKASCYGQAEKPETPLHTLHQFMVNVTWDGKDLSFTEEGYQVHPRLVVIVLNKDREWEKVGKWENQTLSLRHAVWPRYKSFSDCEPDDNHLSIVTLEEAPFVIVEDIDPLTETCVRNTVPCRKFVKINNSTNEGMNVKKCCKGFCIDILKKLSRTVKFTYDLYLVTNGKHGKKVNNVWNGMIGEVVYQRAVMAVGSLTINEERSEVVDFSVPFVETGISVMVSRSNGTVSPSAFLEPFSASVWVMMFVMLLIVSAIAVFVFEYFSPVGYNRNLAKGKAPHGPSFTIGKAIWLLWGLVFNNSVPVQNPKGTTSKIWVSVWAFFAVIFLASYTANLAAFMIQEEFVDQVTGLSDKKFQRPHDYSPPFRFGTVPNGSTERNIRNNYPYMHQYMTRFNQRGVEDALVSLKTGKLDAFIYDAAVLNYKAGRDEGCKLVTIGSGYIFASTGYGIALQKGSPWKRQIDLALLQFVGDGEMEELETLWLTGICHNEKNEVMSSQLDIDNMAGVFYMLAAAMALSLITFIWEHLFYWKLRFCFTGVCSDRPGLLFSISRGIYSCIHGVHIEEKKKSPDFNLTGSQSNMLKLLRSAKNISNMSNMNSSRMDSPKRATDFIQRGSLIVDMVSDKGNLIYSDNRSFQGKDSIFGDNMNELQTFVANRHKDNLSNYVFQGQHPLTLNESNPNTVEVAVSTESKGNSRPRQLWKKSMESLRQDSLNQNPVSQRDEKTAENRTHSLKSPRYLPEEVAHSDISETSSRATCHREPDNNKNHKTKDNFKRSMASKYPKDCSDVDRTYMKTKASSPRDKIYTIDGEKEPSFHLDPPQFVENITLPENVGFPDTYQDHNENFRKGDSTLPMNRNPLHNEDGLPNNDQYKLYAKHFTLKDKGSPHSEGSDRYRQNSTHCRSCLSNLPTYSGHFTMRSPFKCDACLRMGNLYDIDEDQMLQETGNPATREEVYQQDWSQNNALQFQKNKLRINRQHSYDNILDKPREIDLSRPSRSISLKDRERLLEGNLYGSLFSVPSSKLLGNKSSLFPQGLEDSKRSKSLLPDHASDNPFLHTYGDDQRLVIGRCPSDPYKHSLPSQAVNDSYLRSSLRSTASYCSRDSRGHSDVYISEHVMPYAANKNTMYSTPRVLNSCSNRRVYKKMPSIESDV

[9] = cited from earlier work
NMDAR = settings: 30 μM intracellular memantine; cited from earlier work
[10] = test system: native NMDARs in cultured neurons; settings: cited from earlier work
[11] = molecular target: T3, GluN1/2A(M630W) receptors; assay: MCI protocol, GluN1/2A(M630W)
[12] = constant pH 9.0, 1 mM TMM, 165 μM DMM
[13] = pH 7.2, WT, −65 mV, read-out: traditional IC50

T1 sequence (Q00959 23-1464, other chains not shown): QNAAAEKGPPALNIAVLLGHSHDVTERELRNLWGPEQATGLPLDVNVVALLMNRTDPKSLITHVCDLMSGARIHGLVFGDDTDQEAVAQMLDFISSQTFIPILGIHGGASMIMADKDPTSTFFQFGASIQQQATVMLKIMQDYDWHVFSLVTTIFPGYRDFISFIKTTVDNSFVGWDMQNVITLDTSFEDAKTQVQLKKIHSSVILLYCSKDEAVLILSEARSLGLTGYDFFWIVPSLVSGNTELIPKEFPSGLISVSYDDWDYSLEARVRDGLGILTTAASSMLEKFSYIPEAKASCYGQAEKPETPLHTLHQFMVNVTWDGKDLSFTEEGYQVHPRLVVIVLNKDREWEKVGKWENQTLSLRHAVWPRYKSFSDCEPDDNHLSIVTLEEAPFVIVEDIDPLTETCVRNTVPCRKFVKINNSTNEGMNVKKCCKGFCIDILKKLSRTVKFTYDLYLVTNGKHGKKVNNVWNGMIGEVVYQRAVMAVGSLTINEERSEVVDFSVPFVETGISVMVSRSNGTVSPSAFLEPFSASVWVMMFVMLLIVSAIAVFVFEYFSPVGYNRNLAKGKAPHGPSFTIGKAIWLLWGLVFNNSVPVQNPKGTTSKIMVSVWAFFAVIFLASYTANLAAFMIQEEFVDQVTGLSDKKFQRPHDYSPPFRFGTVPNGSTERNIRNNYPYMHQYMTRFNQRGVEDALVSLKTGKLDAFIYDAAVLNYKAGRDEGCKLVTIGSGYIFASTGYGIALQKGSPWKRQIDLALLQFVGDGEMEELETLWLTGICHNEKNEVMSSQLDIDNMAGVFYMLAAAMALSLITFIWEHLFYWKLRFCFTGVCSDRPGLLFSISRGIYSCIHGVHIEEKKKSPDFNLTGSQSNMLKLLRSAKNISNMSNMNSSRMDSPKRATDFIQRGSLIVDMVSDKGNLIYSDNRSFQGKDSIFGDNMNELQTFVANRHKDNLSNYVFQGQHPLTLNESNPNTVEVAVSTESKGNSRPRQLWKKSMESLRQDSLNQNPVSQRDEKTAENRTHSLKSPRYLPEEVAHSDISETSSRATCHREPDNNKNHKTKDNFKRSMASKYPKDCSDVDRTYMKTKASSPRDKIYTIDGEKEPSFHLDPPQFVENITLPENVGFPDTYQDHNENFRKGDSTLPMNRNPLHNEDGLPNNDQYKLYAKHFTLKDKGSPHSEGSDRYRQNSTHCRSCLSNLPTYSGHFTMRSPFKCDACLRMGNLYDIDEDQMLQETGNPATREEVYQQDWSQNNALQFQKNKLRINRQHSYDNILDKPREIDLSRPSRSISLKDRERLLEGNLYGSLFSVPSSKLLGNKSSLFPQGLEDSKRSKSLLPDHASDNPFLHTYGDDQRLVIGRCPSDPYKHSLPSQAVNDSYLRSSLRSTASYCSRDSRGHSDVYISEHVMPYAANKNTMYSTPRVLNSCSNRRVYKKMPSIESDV

CC12CC3CC(C)(C1)CC([N+](C)(C)C)(C3)C2 (as salt: iodide) [TMM, N,N,N,3,5-pentamethyladamantan-1-ammonium iodide]
melting point: > 200 °C (dec.)

CN(C)C12CC3CC(C)(CC(C)(C3)C1)C2.Cl [DMM, N,N,3,5-tetramethyladamantan-1-amine hydrochloride]
melting point: 180 °C | Min IMCI/IControl (GluN1/2A receptors [1]; 165 μM DMM, constant pH 9.0): 0.402 ± 0.037 | MCI exhibited (in words) (GluN1/2A receptors [1]; [12]): strong MCI | IC50 (cultured neurons): 28.4 ± 1.4 µM | IC50 (GluN1/2A receptors [2]; [13]): 16.8 ± 1.5 µM

C[C@]12N[C@H](Cc3ccccc31)c1ccccc12 [MK-801]
Min IMCI/IControl (GluN1/2A receptors [1]; 1 μM MK-801, pH 7.2): 0.459 ± 0.035 | τM of MCI onset (GluN1/2A receptors [1]; 1 μM MK-801, pH 7.2): 1002 ± 135 ms | Min IMCI/IControl (GluN1/2A receptors [1]; 10 μM MK-801, pH 7.2): 0.097 ± 0.029 | τM of MCI onset (GluN1/2A receptors [1]; 10 μM MK-801, pH 7.2): 311 ± 59 ms | MCI exhibited (in words) (GluN1/2A receptors [1]; pH 7.2): displayed MCI | τM faster at 10 μM than at 1 μM MK-801 (GluN1/2A receptors [1]; pH 7.2): ~ 3 fold | Min IMCI/IControl [3]: 0.612 ± 0.019

c1ccc(C2(N3CCCCC3)CCCCC2)cc1 [PCP, phencyclidine]
Min IMCI/IControl (GluN1/2A receptors [1]; 10 μM PCP, pH 7.2): 0.409 ± 0.063 | MCI exhibited (in words) (GluN1/2A receptors [1]; pH 7.2): displayed MCI

CC12CC3CC1(C)C1(C)CC3(CN)CC21C [RL-208]
Min IMCI/IControl (GluN1/2A receptors [1]; 20 μM RL-208, pH 7.2): 0.275 ± 0.017 | MCI exhibited (in words) (GluN1/2A receptors [1]; pH 7.2): displayed MCI

CC12CC3CC(C)(C1)CC([N+](C)(C)C)(C3)C2 [TMM, N,N,N,3,5-pentamethyladamantan-1-ammonium iodide]
Min IMCI/IControl (GluN1/2A receptors [1]; 1 mM TMM, constant pH 9.0): 0.987 ± 0.039 | MCI exhibited (in words) (GluN1/2A receptors [1]; [12]): no MCI | IC50 (GluN1/2A receptors [2]; [13]): 72.3 ± 14.2 µM

CN1CC[C@@]23CCCC[C@@H]2[C@@H]1Cc1ccc(O)cc13 [dextrorphan]
Min IMCI/IControl (GluN1/2A receptors [1]; 50 μM dextrorphan, pH 7.2): 0.549 ± 0.043 | MCI exhibited (in words) (GluN1/2A receptors [1]; pH 7.2): displayed MCI

CNC1(c2ccccc2Cl)CCCCC1=O (stereo not shown) [ketamine]
MCI exhibited (in words) (NMDARs): does not exhibit MCI

CC12CC3CC(C)(C1)CC(N)(C3)C2 [memantine]
IC50 [4]: 1.65 ± 0.09 µM | IC50 [5]: 51.4 ± 5.1 µM | MCI at depolarized Vm (in words) (NMDARs; 100 μM memantine, 35 mV): nearly abolished | Uncharged % ([6]; pH 6.3): 0.008% | [Uncharged] at 100 μM ([6]; pH 6.3): 8 nM | Uncharged % ([6]; pH 7.2): 0.063% | [Uncharged] at 100 μM ([6]; pH 7.2): 63 nM | Uncharged % ([6]; pH 9.0): 3.8% | [Uncharged] at 100 μM ([6]; pH 9.0): 3800 nM | pKa [7]: 10.4 | IC50 [8]: 1.49 ± 0.2 µM | LogP [9]: ~ 3 | NMDAR inhibition by intracellular drug (in words) (NMDAR): not to cause NMDAR inhibition | time constant of current decay following the preinhibition peak (GluN1/2A receptors [1]; 100 μM memantine, pH 7.2, from point-by-point ratios): 46.4 ± 4.1 ms | time constant of MCI onset (GluN1/2A receptors [1]; 100 μM memantine, pH 7.2, likely faster than decay time constant): < 46.4 ms | IC50 (GluN1/2A receptors [1]; Memantine MCI IC50, pH 7.2 (Fig. 1h data set)): 71 ± 1.7 µM | IC50 (GluN1/2A receptors [1]; Memantine MCI IC50, pH 9.0 jump): 8.77 ± 3.26 µM | IC50 (GluN1/2A receptors [1]; Memantine MCI IC50 of WT receptors, pH 7.2 (additional data set, Fig. 6h)): 68.6 ± 4.8 µM | potency estimated from few doses (GluN1/2A receptors [1]; tsA201, pH 6.3, read-out: Memantine MCI IC50): 841 ± 5 µM | MCI of native NMDARs (in words) [10]: subject to MCI | IC50 [11]: 148 ± 2.8 µM | IC50 (GluN1/2A receptors [2]; traditional IC50, pH 7.2, WT, −65 mV): 1.71 ± 0.06 µM | IC50 (GluN1/2A receptors [2]; traditional IC50, pH 9.0, WT): 3.43 ± 0.61 µM

Source: paper PMC9287434, “Inhibition of NMDA receptors through a membrane-to-channel path” (Nature Communications, 2022)
